Test results from patent US20120128795A1, “COLORLESS, NON-FUMING, HAZARDLESS AND STABLE AQUA-REGIA, ITS PREPARATION METHOD AND USE IN TREATING MEDICAL DISORDERS” (priority 2010, published 2012).

What was measured:
[1] = tested on: intestinal transit of charcoal meal in albino rats; experiment: Gastrointestinal motility test (charcoal meal transit); assay type: in vivo, Swiss albino rats; conditions: charcoal meal one hour after dosing, sacrificed thirty minutes later; aqua-regia 0.03 ml, atropine sulphate 0.1 mg/kg; control group 84.46%
Description: (§1) The use of the hazardless and stable aqua-regia in rehydrating body cells was tested on albino rats. In an embodiment, Swiss albino rats weighing 150-180 g of either sex were selected for the experiment. Animals were allowed to acclimatize for a period of 2 weeks in laboratory environment by housing them in a plurality of polypropylene cages. The polypropylene cages were maintained under standard laboratory conditions at an ambient temperature of 25° C. with 35%-60% humidity. Animals were fed with standard rat pellet diet.
Atropine sulphate (standard reference anti-diarrheal drug), charcoal meal (10% activated charcoal in 5% gum acacia) and vehicle (2% v/v Tween 80 in distilled water) were used. […]
The gastrointestinal motility test was conducted to illustrate use of aqua-regia in rehydrating body cells, according to an embodiment herein. […] The distance travelled by the charcoal meal was calculated. The distance covered by the charcoal meal in the intestine was expressed as a percentage of the total distance travelled from the pylorus to the caecum of each animal.
(§2) Data were analyzed by one-way ANOVA followed by Dunnett's t-test using computerized Graph Pad InStat version 3.05.

[2] = tested on: castor oil-induced diarrhea in albino rats; experiment: Castor oil-induced diarrhea (weight of faeces, rate of defecation); assay type: in vivo, Swiss albino rats; conditions: STD group, 10 mg/kg i.p.
Description: as §1, with “anti-diarrheal activity” for “use”, “terms of reduction of rate of defecation and consistency of faeces” for “rehydrating body cells”
Loperamide (standard reference anti-diarrheal drug), castor oil (laxative agent), and normal saline solution (0.9% NaCl) were used. […]
Animals of all the groups were placed separately in individual cages lined with filter paper. The filter paper was changed every 1 hour and the severity of diarrhea was assessed hourly for two hours. The total weight of faeces excreted were recorded within a period of two hours and compared with that of the control group. […]
as §2

`CN1[C@@H]2CC[C@H]1CC(OC(=O)C(CO)c1ccccc1)C2.CN1[C@@H]2CC[C@H]1CC(OC(=O)C(CO)c1ccccc1)C2.O=S(=O)(O)O` (some centres unmarked) [standard drug, Atropine sulphate] was tested, and the “percentage transit (distance covered by charcoal meal as percentage of distance from pylorus to caecum)” value [1] was 55.57%.
`CN(C)C(=O)C(CCN1CCC(O)(c2ccc(Cl)cc2)CC1)(c1ccccc1)c1ccccc1` [loperamide, Loperamide] was tested, and the diarrheal symptoms [2] was “does not possess any diarrheal symptoms”.
